In PubChem BioAssay (NCI):
Several values for one entry are separate records, joined by “and”; a condition that tells them apart may be missing. Identical values can stand only once.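 Assay format: 96-well plates, 48-hour exposure. GI50: concentration for 50% inhibition of growth. TGI marks complete inhibition of growth.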

Legend:
Experiment in all cases: inhibition of tumour cell growth, NCI panel, 48 h; in the data active = GI50 below about 0.43 µM; inactive = the rest
[1] = tested on: 786-0 renal
[2] = tested on: A498 renal
[3] = tested on: A549 NSCLC
[4] = tested on: ACHN renal
[5] = tested on: BT-549 breast
[6] = tested on: CAKI-1 renal
[7] = tested on: CCRF-CEM leukemia
[8] = tested on: COLO 205 colon
[9] = tested on: DU-145 prostate
[10] = tested on: EKVX NSCLC
[11] = tested on: HCC-2998 colon
[12] = tested on: HCT-116 colon
[13] = tested on: HCT-15 colon
[14] = tested on: HOP-62 NSCLC
[15] = tested on: HOP-92 NSCLC
[16] = tested on: HS 578T breast
[17] = tested on: HT29 colon
[18] = tested on: IGROV1 ovarian
[19] = tested on: K-562 leukemia
[20] = tested on: KM12 colon
[21] = tested on: LOX IMVI melanoma
[22] = tested on: M14 melanoma
[23] = tested on: MALME-3M melanoma
[24] = tested on: MCF7 breast
[25] = tested on: MDA-MB-435
[26] = tested on: MDA-N
[27] = tested on: MOLT-4 leukemia
[28] = tested on: NCI-H226 lung
[29] = tested on: NCI-H23 lung
[30] = tested on: NCI-H460 lung
[31] = tested on: NCI-H522 lung
[32] = tested on: NCI/ADR-RES ovarian
[33] = tested on: OVCAR-3 ovarian
[34] = tested on: OVCAR-4 ovarian
[35] = tested on: OVCAR-5 ovarian
[36] = tested on: OVCAR-8 ovarian
[37] = tested on: PC-3 prostate
[38] = tested on: RPMI-8226 leukemia
[39] = tested on: RXF 393 renal
[40] = tested on: SF-268 CNS
[41] = tested on: SF-295 CNS
[42] = tested on: SF-539 CNS
[43] = tested on: SK-MEL-2 melanoma
[44] = tested on: SK-MEL-28 melanoma
[45] = tested on: SK-MEL-5 melanoma
[46] = tested on: SK-OV-3 ovarian
[47] = tested on: SN12C renal
[48] = tested on: SNB-19 CNS
[49] = tested on: SNB-75 CNS
[50] = tested on: SR leukemia
[51] = tested on: SW-620 colon
[52] = tested on: T-47D breast
[53] = tested on: TK-10 renal
[54] = tested on: U251 CNS
[55] = tested on: UACC-257 melanoma
[56] = tested on: UACC-62 melanoma
[57] = tested on: UO-31 renal
[58] = tested on: MDA-MB-231 breast
[59] = tested on: HL-60(TB) leukemia

O=c1c2ccccc2nc2sc(/N=C/C=C/c3ccccc3)nn12
> 100 µM: TGI [1] | TGI [2] | TGI [3] | TGI [4] | TGI [5] | TGI [6] | TGI [7] | TGI [8] | TGI [9] | TGI [10] | TGI [11] | TGI [12] | TGI [13] | TGI [14] | TGI [15] | TGI [16] | TGI [17] | TGI [18] | TGI [19] | TGI [20] | TGI [21] | TGI [22] | TGI [23] | TGI [24] | TGI [25] | TGI [26] | TGI [27] | TGI [28] | TGI [29] | TGI [30] | TGI [31] | TGI [32] | TGI [33] | TGI [34] | TGI [35] | TGI [36] | TGI [37] | TGI [38] | TGI [39] | TGI [40] | TGI [41] | TGI [42] | TGI [43] | TGI [44] | TGI [45] | TGI [46] | TGI [47] | TGI [48] | TGI [49] | TGI [50] | TGI [51] | TGI [52] | TGI [53] | TGI [54] | TGI [55] | TGI [56] | TGI [57]

Cn1ccoc1=Nc1ccc(Cl)c(Cl)c1
> 10 µM: TGI [1] | TGI [2] | TGI [3] | TGI [4] | TGI [5] | TGI [6] | TGI [7] | TGI [8] | TGI [9] | TGI [10] | TGI [11] | TGI [12] | TGI [13] | TGI [14] | TGI [15] | TGI [16] | TGI [17] | TGI [18] | TGI [19] | TGI [20] | TGI [21] | TGI [22] | TGI [23] | TGI [24] | TGI [58] | TGI [25] | TGI [26] | TGI [27] | TGI [28] | TGI [29] | TGI [30] | TGI [31] | TGI [32] | TGI [33] | TGI [34] | TGI [35] | TGI [36] | TGI [37] | TGI [38] | TGI [40] | TGI [41] | TGI [42] | TGI [44] | TGI [45] | TGI [46] | TGI [47] | TGI [48] | TGI [49] | TGI [50] | TGI [51] | TGI [52] | TGI [53] | TGI [54] | TGI [55] | TGI [56] | TGI [57]

O=c1[nH]c(SCc2ccccc2[N+](=O)[O-])nc2nc[nH]c12
> 100 µM: TGI [1] | TGI [2] | TGI [3] | TGI [4] | TGI [5] | TGI [6] | TGI [7] | TGI [8] | TGI [9] | TGI [10] | TGI [12] | TGI [13] | TGI [59] | TGI [14] | TGI [15] | TGI [16] | TGI [17] | TGI [18] | TGI [19] | TGI [20] | TGI [21] | TGI [22] | TGI [23] | TGI [24] | TGI [58] | TGI [25] | TGI [26] | TGI [27] | TGI [29] | TGI [30] | TGI [31] | TGI [32] | TGI [33] | TGI [34] | TGI [35] | TGI [36] | TGI [37] | TGI [38] | TGI [39] | TGI [40] | TGI [41] | TGI [42] | TGI [43] | TGI [44] | TGI [45] | TGI [46] | TGI [47] | TGI [48] | TGI [49] | TGI [50] | TGI [51] | TGI [52] | TGI [53] | TGI [54] | TGI [55] | TGI [56] | TGI [57]
inactive: GI50 [7] > 100 µM and 29.6 µM | GI50 [58] > 100 µM and 40.8 µM | GI50 [28] 84.7 µM and 33.4 µM | GI50 [34] 30.3 µM and > 100 µM | GI50 [49] > 100 µM and 49.5 µM | GI50 [57] > 100 µM and 35.1 µM
> 100 µM and 98.3 µM: TGI [28]

O=C(CSc1nc2ccc(I)cc2c(=O)n1Cc1ccccc1)NN1C(=O)c2ccccc2C1=O
15.5 µM: TGI [42]
35.9 µM: TGI [15]
64.2 µM: TGI [18]
36.4 µM: TGI [40]
38.2 µM: TGI [34]
25.5 µM: TGI [39]
28.6 µM: TGI [33]
21.8 µM: TGI [49]
44.7 µM: TGI [29]
24 µM: TGI [14]
68.6 µM: TGI [45]
29.4 µM: TGI [41]
32 µM: TGI [58]
35.7 µM: TGI [2]
42.2 µM: TGI [10]
19.6 µM: TGI [37]
51.4 µM: TGI [55]
43.1 µM: TGI [16]
> 100 µM: TGI [1] | TGI [8] | TGI [11] | TGI [12] | TGI [13] | TGI [17] | TGI [19] | TGI [20] | TGI [22] | TGI [24] | TGI [25] | TGI [26] | TGI [30] | TGI [38] | TGI [50] | TGI [51]
30.1 µM: TGI [54]
36.2 µM: TGI [5]
50 µM: TGI [52]
49.9 µM: TGI [44]
29.1 µM: TGI [46]
70.7 µM: TGI [56]
86.7 µM: TGI [35]
30.4 µM: TGI [53]
95.1 µM: TGI [9]
44.9 µM: TGI [21]
28.4 µM: TGI [43]
95 µM: TGI [27]
33.5 µM: TGI [6] | TGI [59]
23.5 µM: TGI [28]
72.5 µM: TGI [3]
57.3 µM: TGI [47] | TGI [48]
34.1 µM: TGI [31] | TGI [36]
68.9 µM: TGI [4]
6.14 µM: TGI [57]
42.8 µM: TGI [32]
62.8 µM: TGI [23]
